Results published in patent publication US20160137746A1, “METHODS FOR TREATING HIGH CARDIOVASCULAR RISK PATIENTS WITH HYPERCHOLESTEROLEMIA” (Sanofi Biotechnology, priority 2014, published 2016).
“And” between values parts separate entries of the source, which are not always exact repeats. Equal entries are not always repeated.

Assays:
[1] = system: high cardiovascular risk patients with hypercholesterolemia; assay: ODYSSEY COMBO II: safety (TEAEs, adjudicated CV events, laboratory parameters, low LDL-C)
Description: Safety assessments during both studies were as follows. Safety was assessed through adverse event (AE) reporting (including adjudicated cardiovascular events), laboratory analyses, and vital signs measurement. Since the LDL-C-lowering effects of PCSK9 inhibition on top of a statin are unknown, a number of AEs were defined as being of special interest and were monitored, including alanine aminotransferase abnormalities, allergic events, hemolytic anemia, pregnancy, overdose with study drug, neurologic events, ophthalmic events, and local injection site reactions.
Safety Analyses were as follows. AEs (including adjudicated cardiovascular events), laboratory parameters, and vital signs were reported descriptively, based on the safety population (all randomized patients who received at least 1 dose or partial dose of study treatment). The safety analysis focused on the treatment-emergent AE period defined as the time from the first double-blind dose to the last double-blind dose of the investigational product +70 days (10 weeks).
The safety population included all randomized patients who received at least one dose or part of a dose of the double-blind IMP.
Safety analyses were descriptive, performed on the safety population according to treatment actually received. For analysis of TEAE and PCSA, the safety analysis focused on the TEAE period defined as the time from the first dose of double-blind IMP administration (capsule or injection, whichever comes first) up to 70 days after the last double-blind injection.

[2] = system: high cardiovascular risk patients with hypercholesterolemia; assay: ODYSSEY COMBO II: lipid efficacy of alirocumab vs ezetimibe, add-on to maximally tolerated statin; type: in vivo, human; conditions: for Calculated LDL-C percent change from baseline, LS mean (SE): ITT population, MMRM, alirocumab 75 Q2W/Up150 Q2W, ezetimibe 10
From the text: Each of the COMBO studies was randomized, double-blinded, and placebo-controlled.
The primary efficacy endpoint for each study was the difference between treatment arms in the percent change in LDL-C from baseline to Week 24.
Apo, apolipoprotein; HDL-C, high-density lipoprotein cholesterol; ITT, intent-to-treat; LDL-C, low-density lipoprotein cholesterol; Lp(a), lipoprotein (a); TG, triglycerides.
COMBO II was a Phase 3, randomized, double-blind, active-controlled, parallel-group, multinational 104-week study. The study enrolled high-risk patients with uncontrolled hypercholesterolemia on stable, maximally tolerated daily statin therapy. Unlike COMBO I, with a placebo arm, COMBO II incorporated an active-treatment arm (ezetimibe) with double-dummy design (FIG. 1B) and patients were not allowed to receive any other lipid lowering therapies besides statin and their randomized treatment.
After randomization, patients entered a double-blind, double-dummy treatment period of 104 weeks.
Primary analyses of efficacy endpoints were conducted using an ITT approach (based on the ITT population defined above), including all lipid data, regardless of whether the patient was continuing therapy or not. This corresponds to ITT estimands, defined for primary and key secondary endpoints. In addition, analyses were also conducted using an on-treatment approach (based on the mITT population defined above), including lipid data collected during the efficacy treatment period. This corresponds to on-treatment estimands of key secondary endpoints.
With regards to the primary efficacy analysis (ITT approach), the percent change in calculated LDL-C from baseline to Week 24 was analyzed using a mixed-effect model with repeated measures (MMRM) approach.

[3] = safety population at 52 weeks, all patients, number (%) of patients
[4] = treatment period, safety population
[5] = ITT, Week 24, listed as alirocumab

## Alirocumab: human anti-PCSK9 antibody; HCVR SEQ ID NO:1, LCVR SEQ ID NO:6; CDRs SEQ ID NOs 2/3/4/7/8/10
[1]; [3]
  TEAE system organ class: Musculoskeletal and connective tissue disorders: 94 (19.6)
  TEAE system organ class: Neoplasms, benign, malignant and unspecified (including cysts and polyps): 15 (3.1)
  TEAE system organ class: Nervous system disorders: 77 (16.1)
  TEAE system organ class: Psychiatric disorders: 21 (4.4)
  TEAE system organ class: Renal and urinary disorders: 21 (4.4)
  TEAE system organ class: Reproductive system and breast disorders: 12 (2.7)
  TEAE system organ class: Respiratory, thoracic, and mediastinal disorders: 45 (9.4)
  TEAE system organ class: Skin and subcutaneous tissue disorders: 35 (7.3)
  TEAE system organ class: Vascular disorders: 33 (6.9)
[1]; [4]
  Patients with 2 consecutive calculated LDL-C value <15 mg/dL: (6.7%)
  Patients with 2 consecutive calculated LDL-C value <25 mg/dL: (22.8%)
[1]; treatment period, safety population, listed as alirocumab
  Patients with 2 consecutive calculated LDL-C value <25 mg/dL: 22.8%
[2]; 24 weeks, FIG. 7
  Achieved LDL-C, median: 40 mg/dL
[2]; 82 of 446 patients with at least one injection after Week 12
  Patients with automatic up-titration at Week 12 from 75 mg Q2W to 150 mg Q2W (Week 8 LDL-C ≧70 mg/dL): 18.4% and 18%
[2]; ITT, Week 24
  Calculated LDL-C percent change, LS mean difference (SE) vs ezetimibe: −29.8 (2.3) %
  Calculated LDL-C, LS mean (SE) percent change from baseline: −50.6 (1.4) %
  Fasting TGs, LS mean percent change from baseline: −13.0%
[2]; [5]
  Calculated LDL-C percent change, LS mean difference (SE) vs ezetimibe: −29.8%
  Calculated LDL-C, LS mean (SE) percent change from baseline: −50.6%
[2]; ITT, Week 24, p=0.9117
  Fasting TGs percent change, LS mean difference vs ezetimibe: −0.3%
[2]; ITT, Week 52, listed as alirocumab
  Calculated LDL-C, LS mean percent change from baseline: −49.5% and −50%
[2]; ITT, time point not given
  Apolipoprotein A-1, LS mean difference vs. ezetimibe: vs. ezetimibe of 6.3%
  Apolipoprotein A-1, LS mean vs. baseline: vs. baseline of +5.0
[2]; On-treatment, Week 24
  Calculated LDL-C percent change, LS mean difference vs ezetimibe: −30.6%
[2]; Week 4
  Calculated LDL-C percent change from baseline, LS mean (SE): −54.7 (1.1) %
[2]; Week 8
  Calculated LDL-C percent change from baseline, LS mean (SE): −54.3 (1.2) %
[2]; Week 12, ITT
  Apo-B - Percent change from baseline to Week 12, LS mean difference vs. ezetimibe: vs. ezetimibe of −22.5%
  Apo-B - Percent change from baseline to Week 12, LS mean vs. baseline: vs. baseline of −39.7
  Calculated LDL-C - Percent change from baseline to Week 12, LS mean difference vs. ezetimibe: vs. ezetimibe of −29.4%
  Non-HDL-C - Percent change from baseline to Week 12, LS mean difference vs. ezetimibe: vs. ezetimibe of −22%
  Non-HDL-C - Percent change from baseline to Week 12, LS mean vs. baseline: vs. baseline of −42.6
  Total-C - Percent change from baseline to Week 12, LS mean difference vs. ezetimibe: vs. ezetimibe of −14.3%
  Total-C - Percent change from baseline to Week 12, LS mean vs. baseline: vs. baseline of −29.4
[2]; Week 12, On-treatment analysis
  Calculated LDL-C - Percent change from baseline to Week 12, LS mean difference vs. ezetimibe: vs. ezetimibe of −29.7%
[2]; Week 16
  Calculated LDL-C percent change from baseline, LS mean (SE): −56.4 (1.3) %
[2]; Week 24
  Apo B reduction compared with ezetimibe: 22.4%
  Fasting TGs reduced from baseline: 13.5%
  HDL-C increase compared with ezetimibe: 8.1%
  Lp(a) reduction compared with ezetimibe: 21.7%
  Mean achieved LDL-C: 51.6 (1.4) mg/dL
  Non-HDL-C reduction compared with ezetimibe: 22.9%
  Calculated LDL-C percent change from baseline, LS mean (SE): −50.6 (1.4) %
[2]; Week 24, ITT
  Apo-B - Percent change from baseline to Week 24, LS mean vs. baseline: vs. baseline of −40.7
  HDL-C - Percent change from baseline to Week 24, LS mean difference vs. ezetimibe: vs. ezetimibe of 8.1%
  HDL-C - Percent change from baseline to Week 24, LS mean vs. baseline: vs. baseline of- +8.6
  Lp(a) - Percent change from baseline to Week 24, combined estimate for adjusted mean difference vs. ezetimibe: ezetimibe of −21.7%
  Lp(a) - Percent change from baseline to Week 24, mean vs. baseline: vs. baseline of −27.8
  Non-HDL-C - Percent change from baseline to Week 24, LS mean difference vs. ezetimibe: vs. ezetimibe of−22.9%
  Non-HDL-C - Percent change from baseline to Week 24, LS mean vs. baseline: vs. baseline of −42.1
  Total-C - Percent change from baseline to Week 24, LS mean difference vs. ezetimibe: vs. ezetimibe of −14.7%
[2]; Week 24, ITT, not statistically significant (p 0.9117)
  Fasting TGs - Percent change from baseline to Week 24, combined estimate for adjusted mean difference vs. ezetimibe: ezetimibe of −0.3%
[2]; Week 24, on-treatment analysis
  HDL-C percent change from baseline to week 24: 9.0 (0.8)
  HDL-C percent change from baseline to week 24, LS mean difference (SE) alirocumab vs ezetimibe: 8.2 (1.4) %
  Lipoprotein(a) percent change from baseline to week 24: −28.1 (1.4)
  Lipoprotein(a) percent change from baseline to week 24, LS mean difference (SE) alirocumab vs ezetimibe: −22.5 (2.4) %
  Total cholesterol percent change from baseline to week 24: −30.4 (0.9)
  Total cholesterol percent change from baseline to week 24, LS mean difference (SE) alirocumab vs ezetimibe: −15.1 (1.5) %
  Triglycerides (fasted) percent change from baseline to week 24: −13.5 (1.4)
  Triglycerides (fasted) percent change from baseline to week 24, LS mean difference (SE) alirocumab vs ezetimibe: −0.2 (2.5) %
[2]; Week 36
  Calculated LDL-C percent change from baseline, LS mean (SE): −51.2 (1.4) %
[2]; Week 52, ITT
  Calculated LDL-C - Percent change from baseline to Week 52, LS mean difference vs. ezetimibe: vs. ezetimibe of −31.2%
[2]; by week 24, dose-increased group
  Absolute reduction in LDL-C: 63.5 mg/dL
[2]; by week 24, remainder of the alirocumab group
  Absolute reduction in LDL-C: 56.9 mg/dL
[2]; in vivo
  Patients who did not require uptitration to alirocumab 150 mg Q2W: approximately 80%
[2]; patients with dose increased to 150 mg SC Q2W
  Additional LDL-C reduction after dose increase at 12 weeks: 12.4%
